{
  "source": "patent US5747482A",
  "about": "“Methods and compositions to inhibit keratinocyte proliferation” (priority 1996, dated 1998)",
  "key": {"[1]": {"details": "distilled deionized water", "text": "Under some conditions, water may also be incorporated into the structure. […] The complex can be recrystallized from ethanol or other solvents to increase purity."}, "[2]": {"test_system": "keratinocyte cells", "format": "cell-based, human", "details": "below 5×10^-4 M, 24 hours treatment", "text": "(§1) Adult human keratinocytes from pooled donor skin were obtained from commercial sources (Cascade Biologics, Portland, Oreg., U.S.A.) and placed in 150 cm^2 bottom area culture flasks using culture medium 154 supplemented with HKGS (about 1%). At 80% confluency, cells were harvested with trypsin and cryopreserved until required.\nThe induction of apoptosis is a critical feature in the programmed cell death as it relates to disease conditions such as cancer, psoriasis, etc. where the uncontrolled proliferation of \"immortal\" cells such as keratinocytes is a causative feature of the disease. This example compares the ability of gallium maltol to induce apoptosis as compared to negative control (no gallium maltol), and positive control (CAM--an agent known to strongly induce apoptosis). The ability for gallium maltol to effect apoptosis was also measured by the inhibitory effect of ATA.\nSpecifically, keratinocyte cells were grown using medium 154 in 24 well plates seed with 2,500 cells/cm^2 as described above. Cultures were continued for 3 or 6 days when the cells had achieved about 20 or 60% confluence respectively. On these 2 occasions, media were aspirated from groups of 3 or 4 wells and replaced with high Ca^+2 medium either without supplement or with one of the following supplements:\n1. Gallium maltol at a final concentration of one of the following: (a) 5×10^-4 M, (b) 1×10^-4 M, (c) 5×10^-5 M, (d) 1×10^-5 M, and (e) 1×10^-6 M;\n4. As in (3) plus CAM at 1×10^-5 or 1×10^-6 M; and\n5. As in (3) plus gallium maltol at 1×10^-4 or 2.5×10^-4 M;\nCulture was renewed for a further 24 hours. At this time, media were removed and discarded, and the cells lysed with 200 μL/well of the solution provided in the Cell Death Detection Kit ELISA Plus (Boehringer Mannheim Biochemicals, Indianapolis, Ind., U.S.A., catalogue number 1774425). Aliquots of the lysate (20 μL) from each of 2 or 3 wells were assayed for nucleosomal enrichment following the kit instructions."}, "[3]": {"test_system": "Keratinocytes", "assay": "Effect on cell differentiation, keratinocytes grown 4 days before gallium maltol, Example 4", "format": "cell-based, human", "details": "for CELL NUMBER, clear squamous / CELL NUMBER, squamous / CELL NUMBER, proliferative: 3 days after 4 days growth; for CELL NUMBER, clear squamous: control 2.0 ± 0.03%; for CELL NUMBER, squamous: control 13.3 ± 2.6%; for CELL NUMBER, proliferative: control 83.6 ± 3.0%", "description": "as §1\nCulture flasks (75 cm^2 bottom area) were seeded with keratinocytes at about 2,500 cells per cm^2 as before. After 24 hours, the medium in three (3) flasks were changed to media (154) with the calcium content increased from the normal 0.2 mM to 1.0 mM (\"high calcium\") plus gallium maltol (GaM) at the following concentrations: 1×10^-5 M, 5×10^-5 M, and 1×10^-4 M. The culture was continued for 7 days when cells were about 75% confluent in the controls (no GaM). Media supplemented as above were changed every 2 days. Finally, media were aspirated and cells rinsed with PBS before exposure to trypsin (0.025%)/EDTA (0.01%). When dislodged, they were collected in centrifuge tubes and the flasks rinsed with PBS:trypsin neutralizing solution (Clonetics, San Diego, Calif., U.S.A.; 1:1 v/v) and added to the cell suspension. The total volume of suspensions was approximately 8 to 10 mL. Aliquots of these suspensions were counted on the hemocytometer in terms of:\n(1) small, light or dark keratinocytes, referred to as \"proliferating\";\n(2) larger, squamous keratinocytes, with intracellular structural elements; and\n(3) clear squamous cells without structural elements.\nIn a subsequent experiment, flasks of keratinocytes were grown in medium 154 for 4 days after seeding, before switching to the high calcium medium without gallium maltol (control) or with gallium maltol at final concentrations of 5×10^-5, 1×10^-5 or 1×10^-6 M. There were 2 or 3 flasks in each group. Culture was continued for another 3 days, when the keratinocytes were harvested and counted as before."}, "[4]": {"test_system": "Keratinocytes", "assay": "Comparison of keratinocyte growth inhibition by gallium maltol, gallium nitrate and maltol, Example 3", "format": "cell-based, human", "details": "1×10^-4 M, 9 days, high Ca^+2 medium; FIG. 3", "text": "as §1\nAt the start of the experiments, the required number of vials of keratinocytes was thawed, and the keratinocytes were placed in culture in 24 well plates at about 2,500 cells/cm^2 using the same culture medium as described above. After 24 hours (to allow attachment), the medium was changed to fresh 154 supplemented with HKGS (about 1%) and gallium maltol. Specifically, the fresh medium was prepared by addition of a sufficient amount of a stock solution to provide for six different compositions having a final gallium concentration of 10^-4 M, 10^-5 M, 10^-6 M, 10^-8 M, 10^-10 M, and 10^-12 M. The stock solution was prepared by adding 22.25 mg of gallium maltol to 50 mL of 154 medium and then passing the solution through a 0.2 μm filter and storing at 4° C.\nWhen control cells were about 40% confluent (generally at 4-5 days in culture, all media were removed by aspiration, keratinocyte growth was assayed by crystal violet staining and conversion to cell numbers as described by Wilkinson, et al.^11. Specifically, cell layers rinsed in PBS, which was also aspirated, and 4 drops of crystal violet solution added to each well. The crystal violet solution was prepared by dissolving crystal violet (Fisher Scientific) in PBS:formaldehyde:ethanol (67:3:30%) to give a 0.5 w/v solution. A blank 24-well plate was treated similarly.\nKeratinocytes were cultured in 24-well plates for 9 days in the manner described above in Example 2. […]\nThe cells were then cultured and subsequently evaluated for inhibition of keratinocyte proliferation in the manner described above."}},
  "note": "Like-named read-outs stand apart in the source and are kept apart here.",
  "data": [
    {"compound": "Cc1occc(=O)c1[O-].Cc1occc(=O)c1[O-].Cc1occc(=O)c1[O-].[Ga+3]", "note": "[gallium maltol, neutral 3:1 gallium complex of maltol]", "values": [
      {"measurement": "solubility", "setting": "[1]", "value": "about 24 millimolar"},
      {"measurement": "increase in apoptosis at lower concentrations", "setting": "[2]; cultured 3 days prior, FIG. 5", "value": "failed to provide such a significant increase in apoptosis"},
      {"measurement": "increase in apoptosis at lower concentrations", "setting": "[2]; cultured 6 days prior, FIG. 6", "value": "smaller increases in apoptosis at lower concentrations"},
      {"measurement": "CELL NUMBER, clear squamous", "setting": "[3]; 1×10^-5 M", "value": "3.1 ± 0.06", "unit": "%"},
      {"measurement": "CELL NUMBER, squamous", "setting": "[3]; 1×10^-5 M", "value": "16.0 ± 3.1", "unit": "%"},
      {"measurement": "CELL NUMBER, proliferative", "setting": "[3]; 1×10^-5 M", "value": "80.8 ± 2.0", "unit": "%"},
      {"measurement": "differences in cell differentiation as determined by the proportion of cells", "setting": "[3]; 5×10^-5 M, 1×10^-5 M (1×10^-6 M not counted), 4 days growth, then 3 days exposure", "value": "no significant differences were observed in cell differentiation"},
      {"measurement": "CELL NUMBER, clear squamous", "setting": "[3]; 5×10^-5 M", "value": "3.5 ± 0.06", "unit": "%"},
      {"measurement": "CELL NUMBER, squamous", "setting": "[3]; 5×10^-5 M", "value": "14.0 ± 1.1", "unit": "%"},
      {"measurement": "CELL NUMBER, proliferative", "setting": "[3]; 5×10^-5 M", "value": "82.4 ± 0.91", "unit": "%"},
      {"measurement": "inhibition of keratinocyte proliferation", "setting": "[4]", "value": "about 94%"}
    ]}
  ]
}
